Assay results: patent US20210198277A1, “AMINE-SUBSTITUTED ARYL OR HETEROARYL COMPOUNDS” (Epizyme, Inc., priority 2016, published 2021)

Legend:
human EHMT2 913-1193 = molecular target: T1, human EHMT2 913-1193 (Homo sapiens, UniProt Q96KQ7); assay: EHMT2 enzyme assay on histone peptide substrate (EHMT2 PEP); assay type: biochemical; conditions: Table III; read-out: EHMT2 PEP (IC50 μM)
T1 construct: recombinant purified human EHMT2 913-1193, Viva; purchased Viva
T1 sequence (Q96KQ7 913-1193): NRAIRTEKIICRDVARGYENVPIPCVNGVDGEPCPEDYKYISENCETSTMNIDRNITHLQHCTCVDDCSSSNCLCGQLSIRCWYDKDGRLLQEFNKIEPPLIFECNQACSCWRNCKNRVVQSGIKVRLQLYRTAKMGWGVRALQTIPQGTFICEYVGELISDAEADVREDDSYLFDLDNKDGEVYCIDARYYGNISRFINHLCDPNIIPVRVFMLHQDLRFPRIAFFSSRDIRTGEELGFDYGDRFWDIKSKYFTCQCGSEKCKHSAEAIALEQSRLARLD
Description: Recombinant purified human EHMT2 913-1193 (55 μM) synthesized by Viva was used for all experiments. Biotinylated histone peptides were synthesized by Biopeptide and HPLC-purified to >95% purity. Streptavidin Flashplates and seals were purchased from PerkinElmer and 384 Well V-bottom Polypropylene Plates were from Greiner. ^3H-labeled S-adenosylmethionine (^3H-SAM) was obtained from American Radiolabeled Chemicals with a specific activity of 80 Ci/mmol. Unlabeled SAM and S-adenosylhomocysteine (SAH) were obtained from American Radiolabeled Chemicals and Sigma-Aldrich respectively. Flashplates were washed in a Biotek ELx-405 with 0.1% Tween. 384-well Flashplates and 96-well filter binding plates were read on a TopCount microplate reader (PerkinElmer). Compound serial dilutions were performed on a Freedom EVO (Tecan) and spotted into assay plates using a Thermo Scientific Matrix PlateMate (Thermo Scientific). Reagent cocktails were added by Multidrop Combi (Thermo Scientific).
General Procedure for EHMT2 Enzyme Assay on Histone Peptide Substrate.
10-point curves of test compounds were made on a Freedom EVO (Tecan) using serial 3-fold dilutions in DMSO, beginning at 2.5 mM (final top concentration of compound was 50 μM and the DMSO was 2%). A 1 μL aliquot of the inhibitor dilution series was spotted in a polypropylene 384-well V-bottom plate (Greiner) using a Thermo Scientific Matrix PlateMate (Thermo Scientific). […] Compounds were incubated for 30 minutes with 40 μL per well of 0.031 nM EHMT2 (recombinant purified human EHMT2 913-1193, Viva) in 1× assay buffer (20 mM Bicine [pH 7.5], 0.002% Tween 20, 0.005% Bovine Skin Gelatin and 1 mM TCEP). […] Reactions were incubated for 60 minutes at room temperature and quenched with 10 μL per well of 400 μM unlabeled SAM, then transferred to a 384-well streptavidin Flashplate (PerkinElmer) and washed in a Biotek ELx-405 well washer with 0.1% Tween after 60 minutes. 384-well Flashplates were read on a TopCount microplate reader (PerkinElmer).

EHMT2 = molecular target: T2, EHMT2 (Homo sapiens, UniProt Q96KQ7); assay: MDA-MB-231 H3K9me2 in-cell Western assay (EHMT2 ICW); assay type: cell-based; conditions: Table III; MDA-MB-231 H3K9me2 in-cell Western; read-out: EHMT2 ICW (IC50 μM)
T2 construct: host or cells: MDA-MB-231
T2 sequence (Q96KQ7 1-1210): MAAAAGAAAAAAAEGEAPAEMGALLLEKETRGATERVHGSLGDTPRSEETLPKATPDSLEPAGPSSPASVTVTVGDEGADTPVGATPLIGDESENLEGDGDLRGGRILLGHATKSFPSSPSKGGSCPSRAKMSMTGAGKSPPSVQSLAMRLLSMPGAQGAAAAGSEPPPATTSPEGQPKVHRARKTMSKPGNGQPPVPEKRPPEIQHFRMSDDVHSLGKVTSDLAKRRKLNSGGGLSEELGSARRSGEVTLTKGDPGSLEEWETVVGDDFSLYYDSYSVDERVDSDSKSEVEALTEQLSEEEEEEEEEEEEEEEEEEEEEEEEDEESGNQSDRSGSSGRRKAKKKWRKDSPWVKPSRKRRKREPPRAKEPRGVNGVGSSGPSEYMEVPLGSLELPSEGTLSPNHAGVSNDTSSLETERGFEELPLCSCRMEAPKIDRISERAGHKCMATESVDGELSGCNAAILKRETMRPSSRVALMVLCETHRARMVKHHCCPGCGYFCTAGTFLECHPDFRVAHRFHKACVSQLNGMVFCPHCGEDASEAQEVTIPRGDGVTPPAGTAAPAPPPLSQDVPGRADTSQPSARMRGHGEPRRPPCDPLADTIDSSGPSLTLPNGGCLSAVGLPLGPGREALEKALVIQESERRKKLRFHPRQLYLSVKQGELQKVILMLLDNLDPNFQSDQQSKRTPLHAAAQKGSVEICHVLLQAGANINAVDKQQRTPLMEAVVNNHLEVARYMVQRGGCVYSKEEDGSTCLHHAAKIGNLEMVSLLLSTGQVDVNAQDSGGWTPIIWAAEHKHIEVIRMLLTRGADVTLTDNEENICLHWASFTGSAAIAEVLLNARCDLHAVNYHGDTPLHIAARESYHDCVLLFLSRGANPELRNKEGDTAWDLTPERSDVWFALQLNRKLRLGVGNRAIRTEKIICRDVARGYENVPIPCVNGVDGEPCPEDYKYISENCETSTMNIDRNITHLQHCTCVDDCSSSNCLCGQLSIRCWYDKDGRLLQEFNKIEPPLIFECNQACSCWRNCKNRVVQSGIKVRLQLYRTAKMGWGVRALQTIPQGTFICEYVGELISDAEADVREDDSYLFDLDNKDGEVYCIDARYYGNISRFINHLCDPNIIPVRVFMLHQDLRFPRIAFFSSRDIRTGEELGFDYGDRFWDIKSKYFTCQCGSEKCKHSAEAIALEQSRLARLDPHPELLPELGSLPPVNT
Excerpt: RPMI/Glutamax medium, Penicillin-Streptomycin, Heat Inactivated Fetal Bovine Serum, and D-PBS were purchased from Life Technologies (Grand Island, N.Y., USA). Odyssey blocking buffer, 800CW goat anti-mouse IgG (H+L) antibody, and Licor Odyssey Infrared Scanner were purchased from Licor Biosciences, Lincoln, Nebr., USA. […] 16% Paraformaldehyde was purchased from Electron Microscopy Sciences, Hatfield, Pa., USA).MDA-MB-231 cells were maintained in complete growth medium (RPMI supplemented with 10% v/v heat inactivated fetal bovine serum) and cultured at 37° C. under 5% CO2. UNC0638 was purchased from Sigma-Aldrich (St. Louis, Mo., USA).
Compound (100 nL) was added directly to 384-well cell plate. MDA-MB-231 cells (ATCC) were seeded in assay medium (RPMI/Glutamax supplemented with 10% v/v heat inactivated fetal bovine serum and 1% Penicillin/Streptomycin, Life Technologies) at a concentration of 3,000 cells per well to a Poly-D-Lysine coated 384-well cell culture plate with 50 μL per well. […] Plates were incubated at room temperature for 30 minutes and then incubated at 37° C., 5% CO2 for additional 48 hours. After the incubation, 50 μL per well of 8% paraformaldehyde (Electron Microscopy Sciences) in PBS was added to the plates and incubated at room temperature for 20 minutes. […] Next, 60 μL per well of Odyssey blocking buffer (Licor Biosciences) was added to each plate and incubated for 1 hour at room temperature. Blocking buffer was removed and 20 μL of monoclonal primary antibody α-H3K9me2 (Abcam) diluted 1:800 in Odyssey buffer with 0.1% Tween 20 (v/v) were added and plates were incubated overnight (16 hours) at 4° C. Plates were washed 5 times with 100 μL per well of wash buffer. Next 20 μL per well of secondary antibody was added (1:500 800CW donkey anti-mouse IgG (H+L) antibody (Licor Biosciences), 1:1000 DRAQ5 (Cell Signaling Technology) in Odyssey buffer with 0.1% Tween 20 (v/v)) and incubated for 1 hour at room temperature. The plates were washed 5 times with 100 μL per well wash buffer then 2 times with 100 μL per well of water. Plates were allowed to dry at room temperature then imaged on a Licor Odyssey Infrared Scanner (Licor Biosciences) which measured integrated intensity at 700 nm and 800 nm wavelengths. Both 700 and 800 channels were scanned.
First, the ratio for each well was determined by:
The average of the ratio values for each well was calculated and used to determine the percent inhibition for each test well in the plate. Control compound was serially diluted three-fold in DMSO for a total of 10 test concentrations beginning at 1 μM. Percent inhibition was calculated as: […]
IC50 curves were generated using triplicate wells per concentration of compound. […] IC50 values were calculated using a non-linear regression (variable slope-four parameter fit model) with by the following formula: […]

Question: What does the source list for `CNc1ccnc(Nc2ccc(OC)c(OCCCN3CCC3)c2)n1` [Compound 281]?
Answer: IC50 (human EHMT2 913-1193): < 0.1 µM; IC50 (EHMT2): 0.1 to 1 µM

Question: `CNc1ccnc(Nc2ccc(OC)c(OCCCN3CCCC3)c2)n1` [Compound 399] was tested. Which IC50 (EHMT2) did it give?
Answer: 0.1 to 1 µM
